This is an account of results in US20050244413A1, “Compositions and methods for treating cancer using cytotoxic CD44 antibody immunoconjugates and chemotherapeutic agents” (priority 2002, published 2005).

The IC50 is the concentration that gives 50% inhibition. Higher therefore signals weaker potency in that assay.

Assay [1] relates to antigen-positive A431 cells. Kind of assay: In vitro cytotoxicity, MTS/PMS cell proliferation assay, A431. Format: cell-based, human. Conditions: 4 days exposure. Here is the method: For determination of viable cells the Cell Titer 96® AQueous non-radioactive cell proliferation assay (Promega) was used. Five thousand cells per well were seeded into 96-well plates in 90 μl medium without phenole red. Cells were allowed to settle down for 1 to 3 h and then serial dilutions of the immunoconjugate in 10 μl PBS were added. Cells without immunoconjugate served as negative control. Cells were incubated for 4 days at 37° C. in a humified 5% CO2 atmosphere and then 20 μl MTS/PMS were added according to the manufacturer's recommendation. After additional 1 to 4 h incubation at 37° C. the absorbance at 490 nm was recorded using an ELISA plate reader. For each cell line triplicates were analyzed. The percentage of the surviving cell fraction and the IC50 value were calculated using the GraphPad Prism® (Version 3.0) software.
The in vitro cytotoxicity of BIWI 1 was evaluated using the antigen-positive cell lines A431 and FaDu, and the antigen-negative cell line […]. Cells were exposed to different concentrations of BIWI 1 for 4 days, then stained with MTS/PMS and assayed on an ELISA plate reader. The surviving fractions of cells were then calculated using the GraphPad Prism® software package.

A further assay concerns MDA-MB 453 tumors. Kind of assay: BIWI 1 monotherapy in MDA-MB 453 xenografted mice. Format: in vivo, mouse. Here is the method: In vivo anti-tumor efficacy of BIWI 1 was tested in three nude mouse xenograft models applying antigen-positive human tumors: A431 (ATCC # CRL 1555; epidermoid carcinoma of the vulva), FaDu (ATCC # HTB 43; squamous cell carcinoma of the pharynx), and MDA-MB 453 (ATCC # HTB-131; breast carcinoma). The cells were received from ATCC and cultured in RPMI1640 medium containing 10% fetal calf serum and supplements. 1×10^6 tumors cells were transplanted subcutaneously into the right flank of 6 week old female NMRI-nu/nu mice. Tumor growth was monitored by measuring tumor size. A tumor response was rated as complete response when the tumor completely disappeared at any time after start of treatment. The response was rated as partial response when the tumor volume decreased after treatment but thereafter started regrowing. The tolerability of the treatment was monitored by measuring mouse weight during the observation period.
Groups of 6 mice were treated with 6.25 mg/kg BIWI 1, 12.5 mg/kg BIWI 1, and 25 mg/kg BIWI 1, respectively. Treatment consisted of i.v. injections of BIWI 1 given weekly for four weeks. The average tumor size at start of treatment was 246±/−79 mm^3 (PBS), 216 +/85 mm^3 (6.25 mg/kg BIWI 1), 188±/−79 mm^3 (12.5 mg/kg BIWI 1), and 207±/−96 mm3 (25 mg/kg BIWI 1), respectively. The initial tumor volume doubling time of the control tumors was approximately 5 days. […] Tumors treated with 12.5 mg/kg or 6.25 mg/kg responded completely in 5/6 cases in each dose group, and 4 animals of each group stayed tumor free until the end of the experiment.

Another assay relates to MDA-MB-453 tumors. Conditions: BIWI 1 75 μg/kg DM1 i.v. q7dx4.
The mark [2] stands for this setting: 25 mg/kg BIWI 1 i.v. weekly for four weeks.

“And” between values parts separate entries of the source, which are not always exact repeats. Equal values may be shown once.

Protocol for MDA-MB-453 tumors: Experiments were performed using nude mice xenografted subcutaneously with the human breast carcinoma cell line MDA-MBA53. […] The efficacy of these combinations was compared to those of the respective monotherapies by i) analysing the tumor volumes over time and ii) by determining the time for tumors to reach a certain size (tumor growth delay).
The dilutions were prepared freshly for each application or stored at +4° C. during the whole treatment period. […] 200 μl of solutions with different concentrations were injected into the tail vein. Docetaxel (Taxotere®, Aventis, 10 mg/ml) was diluted in 0.9% NaCl. 200 μl of solutions with different concentrations were injected into the tail vein.
Briefly, 1×10^7 MDA-MB-453 cells (ATCC No. HTB-131) were injected into the mammary fat pad of female NMRI nu/nu mice. After reaching a volume of approximately 1000 mm^3 tumors were excised, cut into 4×4 mm pieces and passaged further subcutaneously. Tumor fragments were cryoconserved in 90% RPMI 1640/10% dimethylsulfoxide (slow freezing process down to −80° C., storage in liquid nitrogen). For further passaging, frozen tumor fragments were thawed, washed 3 times in PBS and implanted subcutaneously into the right and left flanks of a 4-5 female NMRI nu/nu mice. Tumors of these mice were then used to prepare the animals for a therapy experiment. Tumors were excised with a size of approximately 10 mm in diameter, cut into 2×2 mm pieces and implanted subcutaneously into the right flank of 6-8 week old female NMRI nu/nu mice. Approximately twice as many animals as needed for the experiment were prepared. When tumors reached a size of 5-10 mm in diameter (10-14 days after implantation), animals were randomised and treatments were started. Animals were obtained from Harlan (Germany) or M&B (Denmark). Tumor sizes and body weights were recorded as described in Section 2.7.

Substance BIWI 1 had an IC50 in assay [1] of about 76 nM. For the same substance, the “animals tumor free until the end of the experiment” value in the assay on MDA-MB 453 tumors (12.5 mg/kg or 6.25 mg/kg BIWI 1, each group of 6 mice) is reported as 4. The complete responses with MDA-MB 453 tumors (12.5 mg/kg or 6.25 mg/kg BIWI 1 i.v. weekly for four weeks, in each dose group) is 5/6. In the assay on MDA-MB 453 tumors (setting [2]), the “day on which tumors disappeared” value is about 22 days, the “tumor regrowth until end of observation period (day 64)” value is “No tumor regrowth” and the tumor response result is reported as “all tumors responded completely”. Also, in the assay on MDA-MB-453 tumors, the GDF4 was 1.3; the “T4T” value was 14 days and 14.1 days; the “T/C (d 16)” value was found to be 75%.
